Measurements: patent US5256671A, “Azabicyclic compounds, pharmaceutical compositions containing them and their use in therapy” (Merck Sharp & Dohme, Limited, priority 1992, dated 1993)
pIC50: −log10 of the molar value. Counter-ions that a name gives are not always drawn.

The compounds below were run against T1, human neurokinin-1-receptor (NK1R) (Homo sapiens, UniProt P25103) (assay: Substance P antagonism assay: 125I-substance P binding to human NK1R expressed in COS or CHO cells). Conditions: 125I-SP displacement, read-out: IC50 @ NK1R.
T1 construct: expressed in transfected cells
Method: To express the cloned human neurokinin-1-receptor (NK1R) transiently in COS, the cDNA for the human NK1R was cloned into the expression vector pCDM9 which was derived from pCDM8 (INVITROGEN) by inserting the ampicillin resistance gene (nucleotide 1973 to 2964 from BLUESCRIPT SK+ (trademark, STRATAGENE, La Jolla, Calif., USA)) into the Sac II site. Transfection of 20 ug of the plasmid DNA into 10 million COS cells was achieved by electroporation in 800 μl of transfection buffer (135 mM NaCl, 1.2 mM CaCl2, 1.2 mM MgCl2, 2.4 mM K2 HPO4, 0.6 mM KH2 PO4, 10 mM glucose, 10 mM N-2-hydroxyethyl-piperazine-N'-2-ethane […] (HEPES) pH 7.4) at 260 V and 950 μF using the IBI GENEZAPPER (trademark IBI, New Haven, Conn., USA). The cells were incubated in 10% fetal calf serum, 2 mM glutamine, 100 U/ml penicillin-streptomycin, and 90% DMEM media (GIBCO, Grand Island, N.Y., USA) in 5% CO2 at 37° C. for three days before the binding assay.
To establish a stable cell line expressing cloned human […], the cDNA was subcloned into the vector pRcCMV (INVITROGEN). Transfection of 20 ug of the plasmid DNA into CHO cells was achieved by electroporation in 800 μl of transfection buffer supplemented with 0.625 mg/ml Herring sperm DNA at 300 V and 950 μF using the IBI GENEZAPPER (IBI). The transfected cells were incubated in CHO media [10% fetal calf serum, 100 U/ml penicillin-streptomycin, 2 mM glutamine, 1/500 hypoxanthine-thymidine (ATCC), 90% IMDM media (JRH BIOSCIENCES, Lenexa, Kans. USA), 0.7 mg/ml G418 (GIBCO)] in 5% CO2 at 37° C. until colonies were visible. Each colony was separated and propagated. The cell clone with the highest number of human NK1R was selected for subsequent applications such as drug screening.
The binding assay of human NK1R expressed in either COS or CHO cells is based on the use of ^125 I-substance P (^125 I-SP, from DU PONT, Boston, Mass.) as a radioactively labeled ligand which competes with unlabeled substance P or any other ligand for binding to the human NK1R. Monolayer cell cultures of COS or CHO were dissociated by the non-enzymatic solution (SPECIALTY MEDIA, Lavellette, N.J.) and resuspended in appropriate volume of the binding buffer (50 mM Tris pH 7.5, 5 mM MnCl2, 150 mM NaCl, 0.04 mg/ml bacitracin, 0.004 mg/ml leupeptin, 0.2 mg/ml BSA, 0.01 mM phosphoramidon) such that 200 μl of the cell suspension would give rise to about 10,000 cpm of specific ^125 I-SP binding (approximately 50,000 to 200,000 cells). In the binding assay, 200 μl of cells were added to a tube containing 20 μl of 1.5 to 2.5 nM of ^125 I-SP and 20 μl of unlabeled substance P or any other test compound. The tubes were incubated at 4° C. or at room temperature for 1 hour with gentle shaking. The bound radioactivity was separated from unbound radioactivity by GF/C filter (BRANDEL, Gaithersburg, Md.) which was pre-wetted with 0.1% polyethylenimine. The filter was washed with 3 ml of wash buffer (50 mM Tris pH 7.5, 5 mM MnCl2, 150 mM NaCl) three times and its radioactivity was determined by gamma counter.

T1 sequence (P25103 whole entry): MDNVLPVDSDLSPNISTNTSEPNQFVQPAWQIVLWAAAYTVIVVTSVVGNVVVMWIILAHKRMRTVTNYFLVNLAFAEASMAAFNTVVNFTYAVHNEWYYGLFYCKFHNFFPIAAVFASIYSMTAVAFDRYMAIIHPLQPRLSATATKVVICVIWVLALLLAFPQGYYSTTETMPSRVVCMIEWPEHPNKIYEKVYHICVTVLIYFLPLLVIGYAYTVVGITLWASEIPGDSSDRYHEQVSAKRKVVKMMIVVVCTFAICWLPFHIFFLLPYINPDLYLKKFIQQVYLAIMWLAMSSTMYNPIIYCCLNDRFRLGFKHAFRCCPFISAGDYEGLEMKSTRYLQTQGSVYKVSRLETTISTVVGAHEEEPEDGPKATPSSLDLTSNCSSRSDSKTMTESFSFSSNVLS

SMILES | pIC50
OC(C=C1C2CCN(CC2)C1C(c1ccccc1)c1ccccc1)c1ccccc1 (single isomer, unassigned) [4 (ISOMER B), E-3-[Methylene(hydroxymethyl)phenyl]-2-benzhydryl quinuclidine] | 6.70
OC(C=C1C2CCN(CC2)C1C(c1ccccc1)c1ccccc1)c1cc(C(F)(F)F)cc(C(F)(F)F)c1 (single isomer, unassigned) [9 (ISOMER A), E-3-[Methylene-2-(3,5-bistrifluoromethyl)hydroxymethyl]-2-benzhydrylquinuclidine] | 9.05
OC(C=C1C2CCN(CC2)C1Cc1ccccc1)c1cc(C(F)(F)F)cc(C(F)(F)F)c1 (single isomer, unassigned) [15 (DIASTEREOMER A), E-3-[Methylene-(3,5-bistrifluoromethylphenyl)hydroxymethyl]-2-benzyl quinuclidine] | 7.20
OC(C=C1C2CCN(CC2)C1Cc1ccccc1)c1cc(C(F)(F)F)cc(C(F)(F)F)c1 (single isomer, unassigned) [15 (DIASTEREOMER B), E-3-[Methylene-(3,5-bistrifluoromethylphenyl)hydroxymethyl]-2-benzyl quinuclidine] | 8.22
FC(C=C1C2CCN(CC2)C1C(c1ccccc1)c1ccccc1)c1cc(C(F)(F)F)cc(C(F)(F)F)c1 (single isomer, unassigned; isomer a) [Example 10, E-3-[Methylene-2-(3,5-bistrifluoromethyl)fluoromethyl]-2-benzhydrylquinuclidine (Isomer A) oxalate salt] | 8.30
FC(C=C1C2CCN(CC2)C1C(c1ccccc1)c1ccccc1)c1cc(C(F)(F)F)cc(C(F)(F)F)c1 (single isomer, unassigned; isomer b) [Example 11, E-3-[Methylene-2-(3,5-bistrifluoromethyl)fluoromethyl]-2-benzhydrylquinuclidine (Isomer B)] | 8.05
FC(F)(F)c1cccc(CC=C2C3CCN(CC3)C2C(c2ccccc2)c2ccccc2)c1 (stereo not drawn) [Example 6, E-3-[Methylene(3-trifluoromethyl)benzyl]-2-benzhydryl quinuclidine] | 7.00
O=C(C=C1C2CCN(CC2)C1C(c1ccccc1)c1ccccc1)c1cc(C(F)(F)F)cc(C(F)(F)F)c1 (stereo not drawn) [Example 7, E-3-[Methylene(3,5-bistrifluoromethylphenyl)oxo]-2-benzhydryl quinuclidine] | < 6.52
O=C(C=C1C2CCN(CC2)C1C(c1ccccc1)c1ccccc1)c1ccccc1 (stereo not drawn) [Example 8, E-3-[Methyleneketophenyl]-2-benzhydrylquinuclidine] | 6.72
Cc1cc(C)cc(C(=O)C=C2C3CCN(CC3)C2C(c2ccccc2)c2ccccc2)c1 (stereo not drawn) [Example 12, E-3-[Methylene-2-keto(3,5-dimethyl)phenyl]-2-benzhydryl quinuclidine] | 6.85
Cc1cccc(C)c1C(O)C=C1C2CCN(CC2)C1C(c1ccccc1)c1ccccc1 (stereo not drawn) [Example 14, E[3-Methylene(2,6-dimethylphenyl)hydroxymethyl]-2-benzhydryl quinuclidine] | 7.05

Same assay, conditions: IC50 @ NK1R, 125I-SP displacement

SMILES | pIC50
COc1ccccc1C(O)C=C1C2CCN(CC2)C1C(c1ccccc1)c1ccccc1 (single isomer, unassigned) [1 (ISOMER A)] | 7.30
COc1ccccc1C(O)C=C1C2CCN(CC2)C1C(c1ccccc1)c1ccccc1 (single isomer, unassigned) [1 (ISOMER B)] | 6.89
OC(C=C1C2CCN(CC2)C1C(c1ccccc1)c1ccccc1)c1ccc(F)cc1 (single isomer, unassigned) [2 (ISOMER B), E-[3-[Methylene(4-fluorophenyl)hydroxymethyl]-2-benzhydryl)quinuclidine] | 6.71
OC(C=C1C2CCN(CC2)C1C(c1ccccc1)c1ccccc1)c1cccc(C(F)(F)F)c1 (single isomer, unassigned) [3 (ISOMER A), E-3-[Methylene(3-trifluoromethylphenyl)hydroxymethyl]-2-benzyhydryl quinuclidine] | 7.52
OC(C=C1C2CCN(CC2)C1C(c1ccccc1)c1ccccc1)c1cccc(C(F)(F)F)c1 (single isomer, unassigned) [3 (ISOMER B), E-3-[Methylene(3-trifluoromethylphenyl)hydroxymethyl]-2-benzyhydryl quinuclidine] | 6.96
C(Cc1ccccc1)=C1C2CCN(CC2)C1C(c1ccccc1)c1ccccc1 (stereo not drawn) [Example 5, E-3-[Methylenebenzyl]-2-benzhydryl quinuclidine] | 6.77
Cc1cc(C)cc(C(O)C=C2C3CCN(CC3)C2C(c2ccccc2)c2ccccc2)c1 (stereo not drawn) [Example 13, E-[3-Methylene(3,5-dimethylphenyl)hydroxymethyl]-2-benzhydryl quinuclidine] | 7.89
